Entries after “also recorded” stand apart in the source; their conditions may differ.
Legend:
[1] = system: REC-1 xenograft; experiment: REC-1 xenograft model; assay type: in vivo, mice; conditions: for Tumor volume: BIDX28
From the text: Typically, athymic nude mice (CD-1 nu/nu) or SCID mice are obtained at age 6-8 weeks from vendors and acclimated for a minimum 7-day period. The cancer cells are then implanted into the nude mice. Depending on the specific tumor type, tumors are typically detectable about two weeks following implantation. When tumor sizes reach ˜100-200 mm^3, the animals with appreciable tumor size and shape are randomly assigned into groups of 8 mice each, including one vehicle control group and treatment groups. Dosing varies depending on the purpose and length of each study, which typically proceeds for about 3-4 weeks. Tumor sizes and body weight are typically measured three times per week. In addition to the determination of tumor size changes, the last tumor measurement is used to generate the tumor size change ratio (T/C value), a standard metric developed by the National Cancer Institute for xenograft tumor evaluation. In most cases, % T/C values are calculated using the following formula: % T/C=100×ΔT/ΔC if ΔT>0. When tumor regression occurred (ΔT<0), however, the following formula is used: % T/T0=100×ΔT/T0. Values of <42% are considered significant.

[2] = molecular target: T1, WT BTK (Homo sapiens, UniProt Q06187); experiment: In vitro dialysis assay (irreversibility assay), WT BTK; assay type: biochemical; conditions: for Conclusion (WT BTK): reversible or irreversible inhibition after 24 hr dialysis; for Recovery after 24 h dialysis: 0.003 mM compound pre-incubated with 2 nM BTK for 2 hr, dialyzed 24 hr against buffer with 40 mM ATP, BTK activity vs non-dialyzed samples
Experimental: (§1) The compound-enzyme complex was dialyzed against the same buffer supplemented with 40 mM ATP for 24 hr. Cumulative dialysis factor >160,000×. After dialysis, the BTK activity was measured in the presence 40 mM ATP and 1 mM substrate peptide and compared to that in non-dialyzed samples. Assay buffer: 100 mM HEPES, pH7.5; 0.1% BSA, 0.01% Triton-X 100; 5 mM MgCl2; 1 mM DTT.

[3] = molecular target: T2, C481S BTK (Homo sapiens, UniProt Q06187, C481S); experiment: Reversibility of binding to C481S BTK enzyme; assay type: biochemical; conditions: cysteine not available for covalent binding
Experimental: as §1

[4] = molecular target: T1, WT BTK; experiment: Caliper-based kinase assay, WT BTK; assay type: biochemical; conditions: 0.5 nM enzyme, 16 μM ATP, 3 h at room temperature; read-out: WT BTK IC50 (nM) (irreversible inhibition)
Experimental: (§2) The reaction was then terminated with EDTA, final concentration 20 mM and the phosphorylated reaction product was quantified on a Caliper Desktop Profiler (Caliper LabChip 3000).

[5] = molecular target: T2, C481S BTK; experiment: Caliper-based kinase assay, C481S BTK; assay type: biochemical; conditions: 0.5 nM enzyme, 16 μM ATP, 3 h at room temperature; read-out: C481S BTK IC50 (nM) (reversible inhibition)
Experimental: as §2

[6] = rats, treatment for longer than 7 days; cited from earlier work
[7] = formulations containing GDC-0853, Phase I clinical trials; cited from earlier work
[8] = 10 mg/kg po, day 26 of the study
[9] = 50 mg/kg po, day 28 of the study

T1 sequence (Q06187 whole entry): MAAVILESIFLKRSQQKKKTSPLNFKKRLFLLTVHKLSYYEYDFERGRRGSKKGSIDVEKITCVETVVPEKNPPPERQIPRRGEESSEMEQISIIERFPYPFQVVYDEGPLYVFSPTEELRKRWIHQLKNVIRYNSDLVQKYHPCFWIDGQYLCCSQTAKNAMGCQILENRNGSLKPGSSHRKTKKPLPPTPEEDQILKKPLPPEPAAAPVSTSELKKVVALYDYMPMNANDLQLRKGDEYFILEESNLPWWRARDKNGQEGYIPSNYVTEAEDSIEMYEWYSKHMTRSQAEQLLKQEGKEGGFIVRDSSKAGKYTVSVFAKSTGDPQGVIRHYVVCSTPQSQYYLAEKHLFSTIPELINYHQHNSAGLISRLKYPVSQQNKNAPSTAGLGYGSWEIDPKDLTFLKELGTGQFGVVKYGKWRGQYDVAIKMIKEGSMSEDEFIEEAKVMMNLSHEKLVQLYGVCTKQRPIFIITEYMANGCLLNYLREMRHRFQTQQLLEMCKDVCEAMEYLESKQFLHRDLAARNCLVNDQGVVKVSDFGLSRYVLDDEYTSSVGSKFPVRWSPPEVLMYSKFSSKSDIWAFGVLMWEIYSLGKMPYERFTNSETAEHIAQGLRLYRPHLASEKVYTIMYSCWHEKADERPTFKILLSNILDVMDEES
T2 sequence (Q06187 whole entry C481S): as the sequence (Q06187 whole entry) above, with C481S counted along it

Compound | Conclusion (WT BTK) [2] | Recovery after 24 h dialysis [2] | IC50 [4] | also measured
CC#CC(=O)N1CCC[C@H]1c1nc(-c2ccc(C(=O)Nc3ccccn3)cc2)c2c(N)nccn12 [ACP-196, Acalabrutinib, reference compound] | – | – | – | Tumor volume [1, 8]: 672 mm^3; Tumor volume [1, 9]: 108 mm^3
C=CC(=O)Nc1cc(Nc2nc(-c3ccnc(N4CCn5c(cc6c5CC(C)(C)C6)C4=O)c3CO)cn(C)c2=O)ccc1N1CCN(C)CC1 [Example 2, N-(5-((6-(2-(7,7-dimethyl-1-oxo-1,3,4,6,7,8-hexahydro-2H-cyclopenta[4,5]pyrrolo[1,2-a]pyrazin-2-yl)-3-(hydroxymethyl)pyridin-4-yl)-4-methyl-3-oxo-3,4-dihydropyrazin-2-yl)amino)-2-(4-methylpiperazin-1-yl)phenyl)acrylamide] | irreversible inhibitors; also recorded: Irreversible/covalent inhibition | – | – | Mode of binding to C481S BTK [3]: reversibly bind
C=CC(=O)Nc1cc(Nc2nc(-c3ccnc(N4CCn5c(cc6c5CC(C)(C)C6)C4=O)c3CO)cn(C)c2=O)ccc1N1CCN(C2CCOCC2)C[C@@H]1C [Example 22, N-(5-[[6-(2-[4,4-dimethyl-9-oxo-1,10-diazatricyclo[6.4.0.0^[2,6]]dodeca-2(6),7-dien-10-yl]-3-(hydroxymethyl)pyridin-4-yl)-4-methyl-3-oxopyrazin-2-yl]amino]-2-[(2S)-2-methyl-4-(oxan-4-yl)piperazin-1-yl]phenyl)prop-2-enamide] | Irreversible/covalent inhibition | ~1% | – | Tumor volume [1, 8]: 450 mm^3; Tumor volume ([1]; 12.5 mg/kg po, day 28 of the study): 201 mm^3; Tumor volume ([1]; 25 mg/kg po, day 28 of the study): 58 mm^3; Tumor volume [1, 9]: 56 mm^3; efficacy compared with Acalabrutinib ([1]; REC-1 xenograft, 10 mg/kg, day 26 of the study): better efficacy than Acalabrutinib; reduction of tumor growth ([1]; REC-1 xenograft, 12.5-50 mg/kg, day 28 of the study): dose-dependent reduction of tumor growth
C=CC(=O)Nc1cc(Nc2nc(-c3ccnc(N4CCn5c(cc6c5CC(C)(C)C6)C4=O)c3C(F)(F)F)cn(C)c2=O)ccc1N1CCN(C2COC2)C[C@@H]1C [Example 28, (S)—N-(5-((6-(2-(7,7-dimethyl-1-oxo-1,3,4,6,7,8-hexahydro-2H-cyclopenta[4,5]pyrrolo[1,2-a]pyrazin-2-yl)-3-(trifluoromethyl)pyridin-4-yl)-4-methyl-3-oxo-3,4-dihydropyrazin-2-yl)amino)-2-(2-methyl-4-(oxetan-3-yl)piperazin-1-yl)phenyl)acrylamide] | – | – | > 100 nM | IC50 [5]: > 1000 nM
C=CC(=O)Nc1cc(Nc2nc(-c3ccnc(N4CCc5ncccc5C4=O)c3CO)cn(C)c2=O)ccc1N1CCN(C2COC2)C[C@@H]1C [Example 31, N-[5-([6-[3-(hydroxymethyl)-2-(5-oxo-7,8-dihydro-1,6-naphthyridin-6-yl)pyridin-4-yl]-4-methyl-3-oxopyrazin-2-yl]amino)-2-[(2S)-2-methyl-4-(oxetan-3-yl)piperazin-1-yl]phenyl]prop-2-enamide] | – | – | > 100 nM | –
C=CC(=O)Nc1cc(Nc2nc(-c3ccnc(N4CCn5c(cc6c5CC(C)(C)C6)C4=O)c3C)cn(C)c2=O)cnc1N1CCN(C2COC2)C[C@@H]1C [Example 46, N-(5-[[6-(2-[4,4-dimethyl-9-oxo-1,10-diazatricyclo[6.4.0.0^[2,6]]dodeca-2(6),7-dien-10-yl]-3-methylpyridin-4-yl)-4-methyl-3-oxopyrazin-2-yl]amino]-2-[(2S)-2-methyl-4-(oxetan-3-yl)piperazin-1-yl]pyridin-3-yl)prop-2-enamide] | Irreversible/covalent inhibition | ~1% | – | –
C[C@H]1CN(C2COC2)CCN1c1ccc(Nc2cc(-c3ccnc(N4CCn5c(cc6c5CC(C)(C)C6)C4=O)c3CO)cn(C)c2=O)nc1 [GDC-0853, reference compound] | reversible WT BTK inhibitor | – | – | pancreatic toxicity [6]: leads to pancreatic toxicity; tolerability [7]: well-tolerated

Now from value to compound, other results behind:

Conclusion (WT BTK) [2] | Recovery after 24 h dialysis [2] | IC50 [4] | Compound | also measured
– | – | > 100 nM | C=CC(=O)Nc1cc(Nc2nc(-c3ccnc(N4CCc5ccncc5C4=O)c3CO)cn(C)c2=O)ccc1N1CCN(C2COC2)C[C@@H]1C [Example 32, N-[5-([6-[3-(hydroxymethyl)-2-(1-oxo-3,4-dihydro-2,7-naphthyridin-2-yl)pyridin-4-yl]-4-methyl-3-oxopyrazin-2-yl]amino)-2-[(2S)-2-methyl-4-(oxetan-3-yl)piperazin-1-yl]phenyl]prop-2-enamide] | –
– | – | > 100 nM | C=CC(=O)Nc1cc(Nc2nc(-c3ccnc(N4CCc5cccnc5C4=O)c3CO)cn(C)c2=O)ccc1N1CCN(C2COC2)C[C@@H]1C [Example 33, N-[5-([6-[3-(hydroxymethyl)-2-(8-oxo-5,6-dihydro-1,7-naphthyridin-7-yl)pyridin-4-yl]-4-methyl-3-oxopyrazin-2-yl]amino)-2-[(2S)-2-methyl-4-(oxetan-3-yl)piperazin-1-yl]phenyl]prop-2-enamide] | –
Irreversible/covalent inhibition | ~1% | 0.073 nM | C=CC(=O)Nc1cc(Nc2nc(-c3ccnc(N4CCc5c(sc6c5CC(C)(C)C6)C4=O)c3CO)cn(C)c2=O)ccc1N1CCN(C2COC2)C[C@@H]1C [Example 34, N-(5-[[6-(2-[4,4-dimethyl-9-oxo-7-thia-10-azatricyclo[6.4.0.0^[2,6]]dodeca-1(8),2(6)-dien-10-yl]-3-(hydroxymethyl)pyridin-4-yl)-4-methyl-3-oxopyrazin-2-yl]amino]-2-[(2S)-2-methyl-4-(oxetan-3-yl)piperazin-1-yl]phenyl)prop-2-enamide] | IC50 [5]: 0.46 nM
Irreversible/covalent inhibition | – | – | C=CC(=O)Nc1cc(Nc2nc(-c3ccnc(N4CCc5c(sc6c5CCCC6)C4=O)c3C)cn(C)c2=O)ccc1N1CCN(C2COC2)C[C@@H]1C [Example 44, (S)—N-(2-(2-methyl-4-(oxetan-3-yl)piperazin-1-yl)-5-((4-methyl-6-(3-methyl-2-(1-oxo-3,4,5,6,7,8-hexahydrobenzo [4, 5]thieno[2,3-c]pyridin-2(1H)-yl)pyridin-4-yl)-3-oxo-3,4-dihydropyrazin-2-yl)amino)phenyl) acrylamide] | –
Irreversible/covalent inhibition | ~1% | – | C=CC(=O)Nc1cc(Nc2nc(-c3ccnc(N4CCn5c(cc6c5CC(C)(C)C6)C4=O)c3C)cn(C)c2=O)ccc1N1CCN(C2COC2)CC1(C)C [Example 45, N-[2-[2,2-dimethyl-4-(oxetan-3-yl)piperazin-1-yl]-5-[[6-(2-[4,4-dimethyl-9-oxo-1,10-diazatricyclo[6.4.0.0^[2,6]]dodeca-2(6),7-dien-10-yl]-3-methylpyridin-4-yl)-4-methyl-3-oxopyrazin-2-yl]amino]phenyl]prop-2-enamide] | –

— patent publication US12637467B2, “Inhibitor of BTK and mutants thereof” (Newave Pharmaceutical Inc., priority 2019, dated 2026)
